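Following 48 hours of exposure in 96-well plates, responses at five concentrations were used to interpolate endpoints linearly. Here, GI50 denotes the concentration required for 50% inhibition of growth.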 Calls of active or inactive are those of the source. No stated cut-off is given here; in the data, active = GI50 up to about 1.1 µM and inactive = higher.
Key:
Experiment in all cases: growth of human tumour cells (NCI), 48 h
[1] = test system: NCI-H23
[2] = test system: KM12
[3] = test system: HOP-62
[4] = test system: MDA-N
[5] = test system: IGROV-1
[6] = test system: SF-295
[7] = test system: CAKI-1
[8] = test system: SR
[9] = test system: K562
[10] = test system: NCI-H226
[11] = test system: LOX IMVI
[12] = test system: U-251
[13] = test system: COLO 205
[14] = test system: SK-MEL-2
[15] = test system: CCRF-CEM
[16] = test system: UACC-62
[17] = test system: UACC-257
[18] = test system: OVCAR-5
[19] = test system: OVCAR-8

Measured: GI50

CNc1ncnc2c1cnn2Cc1cn(CCCCO)nn1
inactive: [1] > 100 µM | [2] > 100 µM | [3] > 100 µM | [4] > 100 µM | [5] > 100 µM | [6] > 100 µM | [7] > 100 µM | [8] > 100 µM | [9] > 100 µM | [10] > 100 µM | [11] > 100 µM | [12] > 100 µM | [13] > 100 µM | [14] > 100 µM | [15] > 100 µM | [16] > 100 µM | [17] > 100 µM | [18] > 100 µM | [19] > 100 µM

c1ccc2c(c1)c1c3n2-c2cc(on2)C3CCC1 (centres undefined)
inactive: [1] > 100 µM | [2] > 100 µM | [3] > 100 µM | [4] > 100 µM | [5] > 100 µM | [6] > 100 µM | [7] > 100 µM | [8] > 100 µM | [9] > 100 µM | [10] > 100 µM | [11] > 100 µM | [12] > 100 µM | [13] 98.4 µM | [14] > 100 µM | [15] 82.6 µM | [16] > 100 µM | [17] > 100 µM | [18] > 100 µM | [19] > 100 µM

O=C1OC(c2ccco2)=N/C1=C\c1cccc([N+](=O)[O-])c1
inactive: [1] > 100 µM | [2] > 100 µM | [3] > 100 µM | [4] > 100 µM | [5] > 100 µM | [6] > 100 µM | [7] > 100 µM | [8] > 100 µM | [9] > 100 µM | [10] > 100 µM | [11] > 100 µM | [12] > 100 µM | [13] > 100 µM | [14] > 100 µM | [15] > 100 µM | [16] > 100 µM | [17] > 100 µM | [18] > 100 µM | [19] > 100 µM

CC(C)(C)c1cc(C(C)(C)C)c(SC2OC(CO)C(O)C(O)C2O)c(O)c1O (centres undefined)
inactive: [1] 4.42 µM | [2] 6.87 µM | [3] 13.2 µM | [4] 4.12 µM | [5] 9.64 µM | [6] 8.39 µM | [7] 17.9 µM | [8] 4.52 µM | [9] 2.93 µM | [10] 12.3 µM | [11] 8.95 µM | [12] 7.43 µM | [13] 8.45 µM | [14] 11.1 µM | [15] 5.27 µM | [16] 2.2 µM | [17] 20.9 µM | [18] 9.18 µM | [19] 7.62 µM

CC1(C)CCOC(=O)C(Cl)CC1Cl (centres undefined)
inactive: [1] > 100 µM | [2] > 100 µM | [3] > 100 µM | [4] > 100 µM | [5] > 100 µM | [6] > 100 µM | [7] > 100 µM | [8] > 100 µM | [9] > 100 µM | [10] > 100 µM | [11] > 100 µM | [12] > 100 µM | [13] > 100 µM | [14] > 100 µM | [15] > 100 µM | [16] > 100 µM | [17] > 100 µM | [18] > 100 µM | [19] > 100 µM

Cc1nc2c(Cl)cc(Cl)cc2c(Cl)c1CCCl
inactive: [1] > 100 µM | [2] > 100 µM | [3] > 100 µM | [4] > 100 µM | [5] > 100 µM | [6] > 100 µM | [7] 64 µM | [8] 79.1 µM | [9] 80.5 µM | [10] > 100 µM | [11] > 100 µM | [12] > 100 µM | [13] > 100 µM | [14] 99.5 µM | [15] 62.8 µM | [16] 79.6 µM | [17] > 100 µM | [18] 78.3 µM | [19] > 100 µM
